According to PubChem BioAssay (NCI):
“And” between values parts separate entries of the source, which are not always exact repeats. Equal values may be shown once.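 Step 1: Grow cells in 96-well plates. Step 2: Expose to compound for 48 hours at 5 concentrations. Step 3: Interpolate endpoints linearly; if unreached, use highest concentration. Abbreviation: GI50, concentration required for 50% inhibition of growth. TGI: concentration producing complete growth inhibition.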

Key:
Experiment in all cases: inhibition of tumour cell growth, NCI panel, 48 h
UO-31 renal = test system: UO-31 renal
SF-295 CNS = test system: SF-295 CNS
K-562 leukemia = test system: K-562 leukemia
SK-OV-3 ovarian = test system: SK-OV-3 ovarian
EKVX NSCLC = test system: EKVX NSCLC
SK-MEL-28 melanoma = test system: SK-MEL-28 melanoma
786-0 renal = test system: 786-0 renal
HOP-62 NSCLC = test system: HOP-62 NSCLC
PC-3 prostate = test system: PC-3 prostate
OVCAR-4 ovarian = test system: OVCAR-4 ovarian
DLD-1 colon = test system: DLD-1 colon
HOP-18 NSCLC = test system: HOP-18 NSCLC
DMS 114 small cell lung = test system: DMS 114 small cell lung
DMS 273 small cell lung = test system: DMS 273 small cell lung
LXFL 529 NSCLC = test system: LXFL 529 NSCLC

| Compound | TGI (UO-31 renal) | TGI (SF-295 CNS) | TGI (K-562 leukemia) | TGI (SK-OV-3 ovarian) | TGI (EKVX NSCLC) | TGI (SK-MEL-28 melanoma) | TGI (786-0 renal) | TGI (HOP-62 NSCLC) | TGI (PC-3 prostate) | TGI (OVCAR-4 ovarian) | TGI (DLD-1 colon) | TGI (HOP-18 NSCLC) | TGI (DMS 114 small cell lung) | TGI (DMS 273 small cell lung) | GI50 (DLD-1 colon) | GI50 (K-562 leukemia) | TGI (LXFL 529 NSCLC) | GI50 (HOP-18 NSCLC) | GI50 (SK-MEL-28 melanoma) | GI50 (HOP-62 NSCLC) |
| --- | --- | --- | --- | --- | --- | --- | --- | --- | --- | --- | --- | --- | --- | --- | --- | --- | --- | --- | --- | --- |
| C/C1=C\CC/C(C)=C/C=C(/C(C)C)CC/C(C(=O)O)=C/CC1 | > 100 µM | 78.3 µM | > 100 µM | 98.2 µM | > 100 µM | > 100 µM | > 100 µM | > 100 µM | > 100 µM | > 100 µM | – | – | – | – | – | – | – | – | – | – |
| CCOC(=O)/C=C/c1c[nH]c(C(=O)OCC)c1 | > 100 µM | > 100 µM | > 100 µM | > 100 µM | > 100 µM | > 100 µM | – | > 100 µM | – | > 100 µM | > 100 µM | > 100 µM | > 100 µM | > 100 µM | – | – | – | – | – | – |
| COc1cc(C2c3cc4c(cc3[C@@H](NCCCN(C)C)[C@H]3COC(=O)C23)OCO4)cc(OC)c1O (stereo partly drawn) | 1.1 µM and 1.72 µM | 0.632 µM and 1.42 µM | > 37.5 µM and 7.84 µM | 1.26 µM and 1.2 µM | 1.58 µM and 1.29 µM | 2.09 µM and 8.62 µM | – | 0.297 µM and 0.925 µM | – | – | 4.01 µM and > 20 µM | > 37.5 µM and 16.3 µM | – | 2.06 µM and 2.61 µM | 1.03 µM and 3.78 µM | 0.831 µM and 0.413 µM | 25.7 µM and > 20 µM | 3.78 µM and 1.18 µM | 0.764 µM and 2.76 µM | 0.0933 µM and 0.271 µM |
| CN(C)c1ccc(N=Nc2cccc3ncccc23)cc1 | > 100 µM | > 100 µM | > 100 µM | > 100 µM | > 100 µM | > 100 µM | > 100 µM | > 100 µM | > 100 µM | > 100 µM | – | – | – | – | – | – | – | – | – | – |
| COC(=O)/C=C(/C(=O)OC)c1c(C)cc2c(C)cc(C)cc(C)c1-2 | 98.2 µM | 29.3 µM | > 100 µM | 99.5 µM | > 95.3 µM | > 100 µM | 41.1 µM | 37.9 µM | 98.6 µM | > 100 µM | – | – | – | – | – | – | – | – | – | – |
| [O-]c1c[n+](CC[n+]2cc([O-])on2)no1 | > 100 µM | > 100 µM | > 100 µM | > 100 µM | > 100 µM | > 100 µM | > 100 µM | > 100 µM | > 100 µM | > 100 µM | – | – | – | – | – | – | – | – | – | – |
| COc1ccc2nc3ccc(OC)cc3c(SCC3CO3)c2c1 (stereo not drawn) | 24.8 µM | > 100 µM | 54.1 µM | > 100 µM | 34.2 µM | 33.5 µM | 23.7 µM | > 100 µM | 28.6 µM | 38.1 µM | – | – | – | – | – | – | – | – | – | – |
| CC(C)(C)[Si](C)(C)OCC#C[C@@]1(O)CCCCC1CC(Sc1ccccc1)Sc1ccccc1 (stereo partly drawn) | 26.9 µM | 28.2 µM | > 100 µM | 34.4 µM | 30 µM | 31.3 µM | 26.4 µM | 31.4 µM | 26.3 µM | 29.2 µM | – | – | – | – | – | – | – | – | – | – |
| COc1cccc(C[C@H]2COC(=O)[C@]2(O)Cc2cccc(OC)c2)c1 | > 100 µM | > 100 µM | > 100 µM | > 100 µM | 81.6 µM | > 100 µM | > 100 µM | > 100 µM | > 100 µM | > 100 µM | – | – | – | – | – | – | – | – | – | – |
| COC(=O)/C(=C\c1cn(C(C)=O)c2ccccc12)P(=O)(OC)OC | 26.1 µM | 28.5 µM | > 100 µM | 39.2 µM | 38 µM | 55.1 µM | 46.3 µM | 28.8 µM | 39.8 µM | 30.2 µM | – | – | – | – | – | – | – | – | – | – |
| COc1ccc(/C=C2\CN(C)CC3C2=NC(=S)NC3c2ccc(OC)cc2)cc1 (stereo not drawn) | > 100 µM | > 75.8 µM | > 100 µM | > 100 µM | > 100 µM | > 100 µM | > 68.5 µM | > 100 µM | > 50 µM | > 70.8 µM | – | – | – | – | – | – | – | – | – | – |
| COC(=O)CCC(C)C1CCC2C3CCC4CC5CCC4(C)C3(O5)C(Br)C(Br)C12C (stereo not drawn) | > 100 µM | > 100 µM | > 100 µM | > 100 µM | > 100 µM | > 100 µM | > 100 µM | > 100 µM | > 100 µM | > 100 µM | – | – | – | – | – | – | – | – | – | – |
| ClCc1ccc2ccc3ccc(CCl)nc3c2n1 | 3.21 µM | 5.69 µM | > 100 µM | – | > 47.5 µM | 4 µM | – | 15.4 µM | – | 14.5 µM | 2.89 µM | 8.77 µM | 4.26 µM | – | – | – | – | – | – | – |
| CN(C)CCCNc1ccc2nnn3c4ccc(OC(=O)c5ccc([N+](=O)[O-])cc5)cc4c(=O)c1c23 | 21 µM | 20.5 µM | 18.9 µM | 26.7 µM | 25.1 µM | 26.6 µM | 16.6 µM | > 33.1 µM | 17.5 µM | 10.9 µM | – | – | – | – | – | – | – | – | – | – |
| CN(C)/C=C/c1ccncc1 | > 100 µM | > 100 µM | > 100 µM | > 100 µM | > 100 µM | > 100 µM | > 100 µM | > 100 µM | > 100 µM | > 100 µM | – | – | – | – | – | – | – | – | – | – |
| CC1CC(C)(O)CC(C(O)CC2CC(=O)NC(=O)C2)C1=O (stereo not drawn) | 1.16 µM | 0.142 µM | 0.706 µM | 2.45 µM | 3.45 µM | 3.55 µM | 0.741 µM | 0.449 µM | 5.63 µM | 0.87 µM | – | – | – | – | – | – | – | – | – | – |
| CO/N=C(/C(=O)OC)c1ccccc1COc1cccc(C(F)(F)F)c1 | > 100 µM | > 100 µM | > 100 µM | > 100 µM | 43.2 µM | > 100 µM | > 100 µM | > 100 µM | > 100 µM | > 100 µM | – | – | – | – | – | – | – | – | – | – |
| Clc1ccc(-c2nc3ccc(C45CC6CC(CC(C6)C4)C5)cc3[nH]2)cc1 | > 100 µM | > 100 µM | 0.0221 µM | > 100 µM | > 100 µM | > 100 µM | > 100 µM | > 77 µM | > 100 µM | > 100 µM | – | – | – | – | – | – | – | – | – | – |
